Inconclusive results are not listed. Activity calls are given as the source filed them.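 The calls were made as follows: active = compound lowering the normal-ribosome reporter at least twice as much as the humanized-ribosome reporter, growth loss under a set limit; inconclusive = no clear call, values can overlap the other calls; inactive = the rest.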
Tested on: E. coli WT GFP strain growth, fluorescence, 24 h
Experiment: growth of wild-type and h24-humanized E. coli strains – h24 mutant RFP vs wild-type GFP, cherry-pick, dose response (AID 977628)

Structure (SMILES)	AC50
CCN(CC)CCN(C(=O)c1ccc2c(c1)OCCO2)c1nc2cc(C)cc(C)c2s1	> 100 µM (inactive)
CC(=O)N1CCN(c2nc(-c3cccs3)nc3ccccc23)CC1	> 100 µM (inactive)
COc1cc(NC(=O)C(c2ccccc2)c2ccccc2)c(C(=O)O)cc1OC	> 100 µM (inactive)
Cc1cccc(OCCC(=O)N(C)CC(=O)Nc2cccc3ccccc23)c1	> 100 µM (inactive)
O=C(Nc1ccc2c(c1)OCCO2)c1cccnc1Oc1ccc(Cl)cc1	> 100 µM (inactive)
Fc1cccc(Cc2c(-c3ccco3)nc3c4ccccc4ccn23)c1	> 100 µM (inactive)
Nc1nn(-c2ccccc2)c2ccc([N+](=O)[O-])cc12	> 100 µM (inactive)
CC1(C(=O)NS(=O)(=O)c2cccs2)CCN1C(=O)C1(c2ccc(Cl)cc2)CCC1 (stereo not given)	> 100 µM (inactive)
CCCCNc1ccc2c(c1)OC[C@@H](Cc1ccccc1)NS2(=O)=O	> 100 µM (inactive)
O=C(c1cc(COc2c(F)cccc2F)on1)N1C[C@H]2CC[C@H]1C2	> 100 µM (inactive)
O=C(CN1CCC(n2nnc3cc(F)ccc32)CC1)N1CCc2ccccc2C1	> 100 µM (inactive)
COc1ccccc1-n1c(Cc2ccccc2)nc2ccccc2c1=O	> 100 µM (inactive)
CC(=O)c1cccc(NC(=O)COC(=O)CCC(=O)c2ccc(F)cc2)c1	> 100 µM (inactive)
Cc1cccc(NC(=O)c2sc3nc(-c4ccccc4)cn3c2C)n1	> 100 µM (inactive)
CCOC(=O)c1cnc2c(ccc3ccccc32)c1NCCCN(C)C	> 100 µM (inactive)
O=C(CCC(=O)N1CCN(c2ccc(F)cc2)CC1)N1CCN(c2ccc(F)cc2)CC1	> 100 µM (inactive)
COc1ccccc1-c1cc2nc(NCCc3ccncc3)ccn2n1	> 100 µM (inactive)
COc1ccc(-c2csc3ncn(-c4ccc(C)cc4)c(=O)c23)cc1OC	> 100 µM (inactive)
CCC(C(=O)NCCc1ccc(C)cc1)n1nc(C)c2c(C)n(-c3ccccc3)nc2c1=O (stereo not given)	> 100 µM (inactive)
Cc1ccoc1C(=O)Nc1ccc2ccccc2c1	> 100 µM (inactive)
CC(=O)c1ccc(N2CCN(C(=O)C3CCN(S(=O)(=O)c4ccc5c(c4)CC(C)N5C(C)=O)CC3)CC2)cc1 (stereo not given)	> 100 µM (inactive)
CSc1ccc(CN(C)CC(=O)NC(C)c2ccccc2)cc1 (stereo not given)	> 100 µM (inactive)
CCOc1ccc(OCc2cccc(C(=O)O)c2)cc1	> 100 µM (inactive)
O=C(C[C@H]1CC[C@@H]2[C@H](COC[C@@H](O)CN2C(=O)Nc2cc(Cl)cc(Cl)c2)O1)N1CCOCC1	> 100 µM (inactive)

Structure (SMILES)	AC50
O=C1NC(CCc2ccccc2)C(=O)N1Cc1cccc2ccccc12 (stereo not given)	> 100 µM (inactive)
COc1cccc(NC2=Nc3cccc4cccc2c34)c1	> 100 µM (inactive)
O=C(Cc1cccc(NC(=O)C2CCN(C(=O)CCc3ccccc3)CC2)c1)Nc1cccc(C(=O)N2CCCC2)c1	> 100 µM (inactive)
CCCCn1c(NS(=O)(=O)c2ccc(C)cc2)c(C(=O)OCC)c2nc3ccccc3nc21	> 100 µM (inactive)
COc1cc(OC)cc(C(=O)N[C@H](C(=O)OCC(=O)Nc2ccc(F)c(F)c2F)C(C)C)c1	> 100 µM (inactive)
COc1ccc(CNc2ccc([N+](=O)[O-])cc2C)cc1	> 100 µM (inactive)
O=C(Nc1ccc2nc(-c3ccccc3)[nH]c2c1)c1cccs1	> 100 µM (inactive)
O=C(CN1c2ccccc2S(=O)(=O)c2ccccc21)NCc1ccc(F)cc1	> 100 µM (inactive)
CCn1nnc(NC(=O)c2ccc([N+](=O)[O-])o2)n1	> 100 µM (inactive)
O=C(O)C1CCCCC1C(=O)Nc1ccc(OCc2ccccc2)cc1 (stereo not given)	> 100 µM (inactive)
CCc1ccc(OCC(=O)NCc2ccco2)c(Br)c1	> 100 µM (inactive)
Cc1cc(C)c(S(=O)(=O)NCCOc2ccccc2)c(C)c1-n1cnnn1	> 100 µM (inactive)
Cc1ccc(S(=O)(=O)N2CC(=O)Nc3ccccc32)cc1C	> 100 µM (inactive)
O=C(c1ccccc1)N(c1ccccc1)c1nccc2ccccc12	> 100 µM (inactive)
CN(C)CCCNc1ccc(-c2cc(Nc3cccc(Cl)c3)ncn2)cn1	> 100 µM (inactive)
COc1ccc2c(c1)c(C(C)=O)c(C)n2CCc1ccc(OC)c(OC)c1	> 100 µM (inactive)
Nc1nc(=S)ss1	> 100 µM (inactive)
COc1ccc(CNc2ncnc3cc(OC)c(OC)cc23)cc1OC	> 100 µM (inactive)
Cc1ccc2nc(SCC(=O)c3ccc(O)cc3O)[nH]c2c1	> 100 µM (inactive)
COc1cc(SC)ccc1C(=O)N1CCN(c2ccccc2F)CC1	> 100 µM (inactive)
CC(C)(C)c1ccc(N2C(=O)CSC2c2cccnc2)cc1 (stereo not given)	> 100 µM (inactive)
O=C1NC(=O)C2(Cc3cc([N+](=O)[O-])ccc3N3CCN(C(=O)c4ccccc4)CC32)C(=O)N1 (stereo not given)	> 100 µM (inactive)
CCOc1ccc2nc(NC(=O)CSc3nc(SC)ns3)sc2c1	> 100 µM (inactive)
O=C(CSc1ccccc1)Nc1cccc(NC(=O)c2ccco2)c1	> 100 µM (inactive)

Structure (SMILES)	AC50
CCN(CC)S(=O)(=O)c1cc(NS(=O)(=O)c2cccc(Cl)c2Cl)ccc1C	> 100 µM (inactive)
CSc1ccccc1NC(=O)CN(c1cccc(C)c1)S(C)(=O)=O	> 100 µM (inactive)
Cc1ccc(C(=O)C2CCN(CC(=O)Nc3nc(C)cs3)CC2)cc1	> 100 µM (inactive)
O=C(NCc1nc2ccccc2[nH]1)c1ccc(S(=O)(=O)N2CCCC2)cc1	> 100 µM (inactive)
COC(=O)c1cc(C(=O)c2c(C)cc3ccccn23)cc([N+](=O)[O-])c1	> 100 µM (inactive)
O=C(NCc1cccnc1)c1ccc(COc2ccc3c(c2)CCC3)o1	> 100 µM (inactive)
COc1ccccc1CNC(=O)CSc1ccc(C)cc1	> 100 µM (inactive)
CCN(C(=O)COC(=O)c1ccc([N+](=O)[O-])o1)c1cccc2ccccc12	> 100 µM (inactive)
O=C1CCCN1CCCNc1ncnc2c1[nH]c1ccc(Cl)cc12	> 100 µM (inactive)
Cc1nc(Sc2ccccc2)c(C#N)c(C)c1[N+](=O)[O-]	> 100 µM (inactive)
O=C(CCC(=O)c1cccs1)OCC(=O)c1ccc(Cl)s1	> 100 µM (inactive)
O=C(Cc1coc2ccc3ccccc3c12)NCc1ccccc1	> 100 µM (inactive)
Cc1cc(Br)ccc1SCC(=O)OCC(=O)NCc1ccco1	> 100 µM (inactive)
O=C(Nc1ccc2c(c1)OCO2)c1ccc([N+](=O)[O-])cc1[N+](=O)[O-]	> 100 µM (inactive)
O=C1Nc2ccc(F)cc2C12Nc1ccccc1-c1nnc(SCc3ccccc3)nc1O2 (stereo not given)	> 100 µM (inactive)
Cc1cccc(S(=O)(=O)NC(=O)C2(C)CCN2C(=O)c2ccccc2CCc2ccccc2)c1 (stereo not given)	> 100 µM (inactive)
COc1ccc(NS(=O)(=O)c2ccc(Cl)c(NC(=O)c3ccccc3F)c2)cc1	> 100 µM (inactive)
COc1ccc(OC2C(=O)N(Cc3ccc4c(c3)OCO4)C2c2sccc2C)cc1 (stereo not given)	> 100 µM (inactive)
COc1ccc(C(=O)c2c(C)oc3ccc(O)cc23)cc1	> 100 µM (inactive)
O=C(CCc1nc2ccccc2s1)OCC(=O)c1ccc[nH]1	> 100 µM (inactive)
O=C(O)c1nn2c(C(F)(F)F)cc(-c3cccs3)nc2c1Cl	> 100 µM (inactive)
COc1cccc(OC)c1OCCCOc1cccc2cccnc12	> 100 µM (inactive)
O=C(CN1CCCCC1)Nc1ccccc1-c1ccccc1	> 100 µM (inactive)

Tested on: E. coli mixed WT/h24 culture total growth, OD600, 24 h
Experiment: as above

Structure (SMILES)	AC50
CCCn1c(C(C)Nc2nc(-c3ccc(C)cc3)cs2)nc2ccccc21 (stereo not given)	> 100 µM
CNC(=O)c1ccsc1NC(=O)c1ccc(S(=O)(=O)N2CCc3ccccc32)cc1	> 100 µM
Cc1ccc(S(=O)(=O)NCc2c(-c3ccccc3)noc2C)cc1	> 100 µM
CC(NC(=O)C12CC3CC(C)(CC(C)(C3)C1)C2)c1ccncc1 (stereo not given)	> 100 µM
COc1ccc(OC)c(S(=O)(=O)Nc2cccc3ccc(O)cc23)c1	> 100 µM
O=S(=O)(NOCc1ccc(Cl)cc1)c1ccc(Cl)cc1	> 100 µM
OCCN(Cc1ccccc1)Cc1ccc(F)c(F)c1	> 100 µM
C[C@@H]1CN([C@@H](C)CO)C(=O)c2cc(NC(=O)C3CC3)ccc2O[C@H]1CN(C)C(=O)Nc1ccc(C(F)(F)F)cc1	> 100 µM
O=C(NC1CCCCC1)C(c1cccc2ccccc12)n1c(=O)c(-c2ccco2)nc2ccccc21 (stereo not given)	> 100 µM
CC(C)n1nnnc1C1c2ccccc2C(=O)N1CCOc1ccccc1 (stereo not given)	> 100 µM
CS(=O)(=O)Nc1ccccc1C(=O)NCCSc1ccccc1	> 100 µM
O=C1c2ccccc2CSc2c(O)cccc21	> 100 µM
COc1cccc(-c2ccc(NC(=O)C3CCCN(Cc4cnn(C(C)C)c4)C3)cc2)c1 (stereo not given)	> 100 µM
COc1ccc(NC(=O)Nc2cccc3c2O[C@H](CN(C)S(=O)(=O)c2ccc(Cl)cc2)[C@@H](C)CN([C@@H](C)CO)C3=O)cc1	> 100 µM
CC(=O)NCCOc1nc(N2CCCCC2)nc(N2CCCCC2)n1	> 100 µM
COC(=O)c1sc(C(C)(C)C)cc1CS(=O)(=O)c1ccc(Cl)cc1	> 100 µM
Cc1n[nH]c(C)c1S(=O)(=O)N1CCCC(C(=O)Nc2ccc(Br)cc2)C1 (stereo not given)	> 100 µM
O=C(CSCc1c(Cl)cccc1Cl)NCc1ccccn1	> 100 µM
Cc1ccccc1SCC(=O)OCC(=O)Nc1sccc1C(N)=O	> 100 µM
Cc1cc(C)c(OCC(=O)OCC(=O)N2CCc3ccccc3C2)c(C)c1	> 100 µM
O=C1OCCC1Sc1nc2ccccc2c(=O)n1Cc1ccccc1 (stereo not given)	> 100 µM
Nc1ccc2nc(-c3ccc(Cl)cc3)[nH]c2c1	> 100 µM
O=C(Nc1ccccc1N1CCOCC1)C1CCCCN1S(=O)(=O)c1ccccc1 (stereo not given)	> 100 µM
COc1ccccc1N1CCN(Cc2ccc(OC)c3ccccc23)CC1	> 100 µM
COc1cc(OC)c(NS(=O)(=O)c2cccc(C(=O)OCC(=O)NCC3CCCO3)c2)cc1Cl (stereo not given)	> 100 µM
CCCCc1cc2c(cc1NC(=O)CN1CCCCC1)OCCO2	> 100 µM
CN(CC(=O)Nc1ccc(F)cc1)C(=O)COc1ccc([N+](=O)[O-])cc1Cl	> 100 µM
CCOC(=O)CN1C(=O)C(CC)Oc2ccc(Cl)cc21 (stereo not given)	> 100 µM
COc1ccc(CSc2nc3ccccc3c(=O)n2CCCN2CCOCC2)cc1F	> 100 µM

— PubChem BioAssay AID977628 (Broad Institute, 2014)
